The values below come from patent publication US20260258032A1, “TYROSINE KINASE 2 INHIBITORS AND USES THEREOF” (BIOGEN MA INC., priority 2022, published 2026).

Counter-ions that a name gives are not always drawn.

What is called IC50 is the concentration at which inhibition is half-maximal.

Experiment [1] has as its system Tyk2 kinase activity on STAT4. Put plainly: pSTAT4 cell assay (MSD, NK92 cells). Type of experiment: cell-based. The settings on record: compounds 1 hr. The gist of the method:
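NK92, serum-starved; cpd 1 hr, 10-pt 4-fold from 10 μM; IL2 30 ng/mL 15 min; lyse; MSD with anti-STAT4 Abs; IC50 by 4-PL fit.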

Experiment [2] has as its system JAK1 kinase activity on STAT3. Put plainly: pSTAT3 cell assay (MSD, TF1 cells, IL-6 stimulated). Type of experiment: cell-based. To be noted: Homo sapiens, TF-1, compounds 1 hour, 30 ng/mL IL-6 for 15 minutes. As to the method:
The inhibitory potency of compounds of the disclosure against the JAK1 kinase activity on STAT3 was evaluated using an MSD-platform plate-based assay format. TF1 cells natively expressing STAT3 and JAK1 were serum-starved to reduce background phosphorylation levels, then cells were treated with compounds of the disclosure for 1 hour with a 10-point four-fold dilution series starting at 10 μM. Cells were then stimulated with 30 ng/mL interleukin 6 (IL-6) for 15 minutes. Cells were lysed and pSTAT3 levels were quantitated using an MSD plate-based assay with anti-STAT3 antibodies. The data were normalized and the percent activity versus log concentration of compound was fitted with a 4-parameter logistic model to generate IC50 curves.

Experiment [3] concerns the target T1, JH2 domain of human Tyk2 (Homo sapiens, UniProt P29597).
T1 construct: 10×His-tagged TYK2 JH2 domain (amino acid 575-876)
The experiment in a line: JH2 biochemical assay (TR-FRET probe displacement). The format is binding. A digest of the protocol:
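10×His-tagged human TYK2 JH2 (aa 575-876, 2 nM) incubated 60 min with 2 nM fluorescent probe, 0.1 nM Tb anti-His antibody and compound (10-point 3-fold series from […] top). TR-FRET 520/495 nm ratio, falling with probe displacement, normalized and fitted to a 4-parameter logistic for IC50.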
(In general: TR-FRET usually uses a lanthanide donor and a delayed reading to cut background.)

Experiment [4] relates to JAK2 kinase activity on STAT5. Put plainly: pSTAT5 cell assay (MSD, TF1 cells, IL-3 stimulated). The format is cell-based. To be noted: Homo sapiens, TF-1, compounds 1 hour, 30 ng/mL IL-3 for 15 minutes. On the procedure:
Compounds of the disclosure were assessed for their ability to inhibit the JAK2 kinase activity on STAT5 utilizing an MSD-platform plate-based assay format. TF1 cells natively expressing STAT5 and JAK2 were serum-starved to reduce background phosphorylation levels, then cells were treated with compounds of disclosure for 1 hour with a 10-point four-fold dilution series starting at 10 μM. Cells were then stimulated with 30 ng/mL IL-3 for 15 minutes. Cells were then lysed and pSTAT5 levels were quantitated using an MSD plate-based assay with anti-STAT5 antibodies. The data were normalized and the percent activity versus log concentration of compound was fitted with a 4-parameter logistic model to generate a curve and an IC50 value.

Setting [5] is: TR-FRET probe displacement, JH2 domain of human Tyk2.

T1 sequence (P29597 575-876): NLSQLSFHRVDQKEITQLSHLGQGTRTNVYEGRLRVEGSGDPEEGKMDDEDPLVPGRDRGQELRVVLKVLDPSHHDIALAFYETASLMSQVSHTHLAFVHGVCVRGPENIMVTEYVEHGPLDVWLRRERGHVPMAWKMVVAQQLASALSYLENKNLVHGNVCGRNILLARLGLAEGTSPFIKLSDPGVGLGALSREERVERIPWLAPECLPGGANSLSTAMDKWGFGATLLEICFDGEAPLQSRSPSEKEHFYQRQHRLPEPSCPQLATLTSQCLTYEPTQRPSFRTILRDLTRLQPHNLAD

Turning to `CC(=O)Nc1cc2c(cn1)C1(CCC1)CN2c1cccc(C(C)(F)F)n1` [Example 42, N-(1′-(6-(1,1-difluoroethyl)pyridin-2-yl)-1′,2′-dihydrospiro[cyclobutane-1,3′-pyrrolo[3,2-c]pyridin]-6′-yl)acetamide], the IC50 in experiment [1] (stimulated 15 minutes) was at least 1 µM; in experiment [2], at least 1 µM; in experiment [3] (JH2 biochemical assay), 0.01 to 0.1 µM; in experiment [4], at least 1 µM.

As for `COCCNc1cc(N2CC3(CC3)c3cnc(NC(C)=O)cc32)nc(C(C)(F)F)n1` [Example 49, N-(1′-(2-(1,1-difluoroethyl)-6-((2-methoxyethyl)amino)pyrimidin-4-yl)-1′,2′-dihydrospiro[cyclopropane-1,3'-pyrrolo[3,2-c]pyridin]-6'-yl)acetamide], the IC50 in experiment [1] (stimulated 15 minutes) was 0.01 to 0.1 µM; in experiment [2] it was at least 1 µM; in experiment [3] (JH2 biochemical assay) it was at most 0.01 µM; in experiment [4], at least 1 µM.

`CC(=O)Nc1cc2c(cn1)C(C)(C)CN2c1cccc(C(C)(F)F)n1` [Example 76, N-(1-(6-(1,1-difluoroethyl)pyridin-2-yl)-3,3-dimethyl-2,3-dihydro-1H-pyrrolo[3,2-c]pyridin-6-yl)acetamide trifluoroacetate]: the IC50 was at least 1 µM in experiment [1] (stimulated 15 minutes), at least 1 µM in experiment [2], 0.1 to 1 µM in experiment [3] (JH2 biochemical assay) and at least 1 µM in experiment [4].

As to `CC(=O)Nc1cc2c(cn1)C1(CC1)CN2c1nc(C)cc(C(C)(F)F)n1` [Example 83, N-(1′-(4-(1,1-difluoroethyl)-6-methylpyrimidin-2-yl)-1′,2′-dihydrospiro[cyclopropane-1,3′-pyrrolo[3,2-c]pyridin]-6′-yl)acetamide], the IC50 in experiment [1] (stimulated 15 minutes) was 0.1 to 1 µM; in experiment [2], at least 1 µM; in experiment [3] (JH2 biochemical assay) it was at most 0.01 µM; in experiment [4], at least 1 µM.

With `CC(=O)Nc1cc2c(cn1)C1(CC1)CN2c1cccc(C2COC2)n1` [Example 84, N-(1′-(6-(oxetan-3-yl)pyridin-2-yl)-1′,2′-dihydrospiro[cyclopropane-1,3′-pyrrolo[3,2-c]pyridin]-6′-yl)acetamide], the IC50 in experiment [1] (stimulated 15 minutes) is at least 1 µM; in experiment [2], at least 1 µM; in experiment [3] (JH2 biochemical assay), 0.01 to 0.1 µM; in experiment [4] it was at least 1 µM.

On to `CC(=O)Nc1cc2c(cn1)C1(CC1)CN2c1cccc(C2(F)COC2)n1` [Example 85, N-(1′-(6-(3-fluorooxetan-3-yl)pyridin-2-yl)-1′,2′-dihydrospiro[cyclopropane-1,3′-pyrrolo[3,2-c]pyridin]-6′-yl)acetamide], for which the IC50 in experiment [1] (stimulated 15 minutes) was at least 1 µM; in experiment [2], at least 1 µM; in experiment [3] (JH2 biochemical assay), 0.01 to 0.1 µM; in experiment [4] it was at least 1 µM.

Consider `COC1(c2cccc(N3CC4(CC4)c4cnc(NC(C)=O)cc43)n2)COC1` [Example 87, N-(1′-(6-(3-methoxyoxetan-3-yl)pyridin-2-yl)-1′,2′-dihydrospiro[cyclopropane-1,3′-pyrrolo[3,2-c]pyridin]-6′-yl)acetamide], for which the IC50 was at least 1 µM in experiment [1] (stimulated 15 minutes), at least 1 µM in experiment [2], 0.01 to 0.1 µM in experiment [3] (JH2 biochemical assay) and at least 1 µM in experiment [4].

For `CC(=O)Nc1cc2c(cn1)C1(CC1)CN2c1cc(C)nc(C(C)(F)F)n1` [Example 88, N-(1′-(2-(1,1-difluoroethyl)-6-methylpyrimidin-4-yl)-1′,2′-dihydrospiro[cyclopropane-1,3′-pyrrolo[3,2-c]pyridin]-6′-yl)acetamide], the IC50 in experiment [1] (stimulated 15 minutes) was 0.01 to 0.1 µM; in experiment [2], at least 1 µM; in experiment [3] (JH2 biochemical assay), at most 0.01 µM; in experiment [4], at least 1 µM.

For `CCC(=O)Nc1cc2c(cn1)C1(CC1)CN2c1cccc(C(C)(F)F)n1` [Example 90, N-(1′-(6-(1,1-difluoroethyl)pyridin-2-yl)-1′,2′-dihydrospiro[cyclopropane-1,3′-pyrrolo[3,2-c]pyridin]-6′-yl)propionamide], the 50% inhibitory concentration (IC50) in experiment [1] (stimulated 15 minutes) is 0.01 to 0.1 µM; in experiment [2] it was at least 1 µM; in experiment [3] (JH2 biochemical assay) it was at most 0.01 µM; in experiment [4], at least 1 µM.

Take `CC(=O)Nc1cc2c(cn1)C1(CC1)CN2c1cc(-c2cnn(C)c2)nc(C(C)(F)F)n1` [Example 238, N-(1′-(2-(1,1-difluoroethyl)-6-(1-methyl-1H-pyrazol-4-yl)pyrimidin-4-yl)-1′,2′-dihydrospiro[cyclopropane-1,3′-pyrrolo[3,2-c]pyridin]-6′-yl)acetamide]: the IC50 in experiment [1] (stimulated 15 minutes) is at most 0.01 µM; in experiment [2], at least 1 µM; in experiment [3] (JH2 biochemical assay) it was at most 0.01 µM; in experiment [4], at least 1 µM.

In the case of `CC(=O)Nc1cc2c(cn1)C1(CCN(C)CC1)CN2c1nccc(C(C)(F)F)n1` [Example 274, N-(1′-(4-(1,1-difluoroethyl)pyrimidin-2-yl)-1-methyl-1′,2′-dihydrospiro[piperidine-4,3′-pyrrolo[3,2-c]pyridin]-6′-yl)acetamide trifluorocetate], the IC50 in experiment [1] (stimulated 15 minutes) was at least 1 µM; in experiment [2], at least 1 µM; in experiment [3] (JH2 biochemical assay) it was 0.1 to 1 µM; in experiment [4], at least 1 µM.

On to `CC(=O)Nc1cc2c(cn1)C1(CCN(C)CC1)CN2c1ccnc(C(C)(F)F)n1` [Example 275, N-(1′-(2-(1,1-difluoroethyl)pyrimidin-4-yl)-1-methyl-1′,2′-dihydrospiro[piperidine-4,3′-pyrrolo[3,2-c]pyridin]-6′-yl)acetamide trifluoroacetate], for which the IC50 in experiment [1] (stimulated 15 minutes), in experiment [2], in experiment [3] (JH2 biochemical assay) and in experiment [4] was at least 1 µM each time.

As to `CNC(=O)Nc1cc2c(cn1)C1(CC1)CN2c1cc(C)nc(C(C)(F)F)n1` [Example 307, 1-(1′-(2-(1,1-difluoroethyl)-6-methylpyrimidin-4-yl)-1′,2′-dihydrospiro[cyclopropane-1,3′-pyrrolo[3,2-c]pyridin]-6′-yl)-3-methylurea], the IC50 in experiment [1] (stimulated 15 minutes) is 0.01 to 0.1 µM; in experiment [2], at least 1 µM; in experiment [3] (JH2 biochemical assay), at most 0.01 µM; in experiment [4] it was at least 1 µM.

For `Cc1cc(N2CC3(CC3)c3cnc(NC(N)=O)cc32)nc(C(C)(F)F)n1` [Example 308, 1-(1′-(2-(1,1-difluoroethyl)-6-methylpyrimidin-4-yl)-1′,2′-dihydrospiro[cyclopropane-1,3′-pyrrolo[3,2-c]pyridin]-6′-yl)urea], the IC50 in experiment [1] (stimulated 15 minutes) was at most 0.01 µM; in experiment [2], at least 1 µM; in experiment [3] (JH2 biochemical assay), at most 0.01 µM; in experiment [4], at least 1 µM.

As to `CCc1cc(N2CC3(CC3)c3cnc(NC(C)=O)cc32)nc(C23COC(C2)C3)n1` [Example 322, N-(1′-(2-(2-oxabicyclo[2.1.1]hexan-4-yl)-6-ethylpyrimidin-4-yl)-1′,2′-dihydrospiro[cyclopropane-1,3′-pyrrolo[3,2-c]pyridin]-6′-yl)acetamide], the IC50 in experiment [1] (stimulated 15 minutes) was 0.01 to 0.1 µM; in experiment [2] it was at least 1 µM; in experiment [3] (JH2 biochemical assay), at most 0.01 µM; in experiment [4] it was at least 1 µM.

For `CCn1cc(-c2cc(N3CC4(CC4)c4cnc(NC(C)=O)cc43)nc(C(C)(F)F)n2)cn1` [Example 384, N-(1′-(2-(1,1-difluoroethyl)-6-(1-ethyl-1H-pyrazol-4-yl)pyrimidin-4-yl)-1′,2′-dihydrospiro[cyclopropane-1,3′-pyrrolo[3,2-c]pyridin]-6′-yl)acetamide trifluoroacetate], the IC50 in experiment [1] (then stimulated 15 minutes) is 0.01 to 0.1 µM; in experiment [2] it was at least 1 µM; in experiment [3] (setting [5]), at most 0.01 µM; in experiment [4], at least 1 µM.

As for `CC(=O)Nc1cc2c(cn1)C1(CC1)CN2c1cc(-c2cnn(C(C)C)c2)nc(C(C)(F)F)n1` [Example 386, N-(1′-(2-(1,1-difluoroethyl)-6-(1-isopropyl-1H-pyrazol-4-yl)pyrimidin-4-yl)-1′,2′-dihydrospiro[cyclopropane-1,3′-pyrrolo[3,2-c]pyridin]-6′-yl)acetamide trifluoroacetate], the IC50 in experiment [1] (then stimulated 15 minutes) was at most 0.01 µM; in experiment [2] it was at least 1 µM; in experiment [3] (setting [5]) it was at most 0.01 µM; in experiment [4], at least 1 µM.
